Assay results taken from ChEMBL document CHEMBL6078706, “Deciphering the Comprehensive Structure-Activity Relationship of Sunshinamide for Breast Cancer Therapy through Dual Modulation of Apoptotic and Ferroptotic Pathways via TrxR1 and Gpx4 Inhibition” (J Med Chem, 2024).
Active and inactive are the calls of the source. The rule behind the calls is not given here.

Key:
MDA-MB-468 [1] = test: Effect on TRXR1 expression in human MDA-MB-468 cells at 25 nM incubated for 24 hrs by Western blot analysis; type: functional, cell-based
MDA-MB-468 [2] = test: Induction of endoplasmic reticulum (ER) stress-mediated apoptosis in human MDA-MB-468 cells assessed as increase in ATF4 expression at 25 nM measured after 12 hrs by Western blot analysis; type: functional, cell-based
MDA-MB-468 [3] = test: Induction of endoplasmic reticulum (ER) stress-mediated apoptosis in human MDA-MB-468 cells assessed as increase in ATF4 expression at 25 nM measured at 4 to 48 hrs by Western blot analysis; type: functional, cell-based; conditions: time 4-48 hrs
MDA-MB-468 [4] = test: Induction of endoplasmic reticulum (ER) stress-mediated apoptosis in human MDA-MB-468 cells assessed as increase in CHOP expression at 25 nM measured at 4 to 48 hrs by Western blot analysis; type: functional, cell-based; conditions: time 4-48 hrs
MDA-MB-468 [5] = test: Induction of apoptosis in human MDA-MB-468 cells transfected with ATF4 SiRNA assessed as increase in caspase 3/7 activation at 25 nM measured at 12 hrs by Western blot analysis; type: functional, cell-based
MDA-MB-468 [6] = test: Induction of mitochondrial ROS generation in human MDA-MB-468 cells at 25 nM incubated for 6 hrs by MitoSOX dye staining based flow cytometry analysis; type: functional, cell-based
MDA-MB-468 [7] = test: Induction of ferroptosis in human MDA-MB-468 cells assessed as increase in cell viability at 25 nM incubated for 48 hrs in presence of ferrostatin-1; type: functional, cell-based
MDA-MB-468 [8] = test: Induction of ferroptosis in human MDA-MB-468 cells assessed as decrease in lipid peroxidation level at 25 nM incubated for 6 hrs in presence of ferrostatin-1 by C11-BODIPY staining based flow cytometry analysis; type: functional, cell-based
MDA-MB-468 [9] = test: Induction of ferroptosis in human MDA-MB-468 cells assessed as decrease in MDA level at 25 nM in presence of ferrostatin-1; type: functional, cell-based
MDA-MB-468 [10] = test: Induction of ferroptosis in human MDA-MB-468 cells assessed as increase in lipid peroxidation at 25 nM by C11-BODIPY staining based flow cytometry analysis; type: functional, cell-based; conditions: time <= 24.0 hrs
MDA-MB-468 [11] = test: Induction of ferroptosis in human MDA-MB-468 cells expressing GPX4 assessed as reduction in lipid peroxidation level at 25 nM incubated for 6 hrs by C11-BODIPY staining based flow cytometry analysis; type: functional, cell-based
MDA-MB-468 [12] = test: Inhibition of cell migration in human MDA-MB-468 cells assessed as decrease in cell migration at 25 nM incubated for 48 hrs by wound healing assay; type: functional, cell-based
MDA-MB-468 [13] = test: Induction of ROS production in human MDA-MB-468 cells assessed as increase in fluorescent signal at 25 nM incubated for 6 hrs by DCFH-DA staining based flow cytometry analysis; type: functional, cell-based
MDA-MB-468 [14] = test: Induction of ROS production in human MDA-MB-468 cells assessed as increase in fluorescent signal at 25 nM incubated for 6 hrs in presence of N-acetyl cysteine by DCFH-DA staining based flow cytometry analysis; type: functional, cell-based
MDA-MB-468 [15] = test: Antiproliferative activity against human MDA-MB-468 cells assessed as reduction in cell viability at 50 nM incubated for 48 hrs in presence of N-acetyl cysteine by MTT assay; type: functional, cell-based
MDA-MB-468 [16] = test: Induction of endoplasmic reticulum (ER) stress-mediated apoptosis in human MDA-MB-468 cells assessed as increase in CHOP expression at 25 nM measured at 2 hrs by Western blot analysis; type: functional, cell-based
MDA-MB-468 [17] = test: Induction of apoptosis in human MDA-MB-468 cells assessed as increase in caspase 3/7 activation at 25 nM measured at 4 hrs by Western blot analysis; type: functional, cell-based
MDA-MB-468 [18] = test: Induction of apoptosis in human MDA-MB-468 cells assessed as increase in activation of caspase at 25 nM by Western blot analysis; type: functional, cell-based; conditions: time 24.0 hrs
MDA-MB-468 [19] = test: Antiproliferative activity against human MDA-MB-468 cells assessed as reduction in cell viability at 50 nM incubated for 48 hrs in presence of Z-VAD by MTT assay; type: functional, cell-based
MDA-MB-468 [20] = test: Induction of mitochondrial dysfunction in human MDA-MB-468 cells assessed as reduction in oxygen consumption rate (OCR) at 25 nM; type: functional, cell-based
4T1 [21] = test: Antitumor activity against mouse 4T1 cells implanted in female BALB/c mouse assessed as tumor growth inhibition at 10 mg/kg, iv administered upto 5 days; type: functional, organism-based; conditions: time <= 5.0 day
4T1 [22] = test: Antitumor activity against mouse 4T1 cells implanted in female BALB/c mouse assessed as increase in phospho PERK level in tumor at 10 mg/kg, iv administered upto 5 days by Western blot analysis; type: functional, organism-based; conditions: time <= 5.0 day
4T1 [23] = test: Antitumor activity against mouse 4T1 cells implanted in female BALB/c mouse assessed as increase in CHOP level in tumor at 10 mg/kg, iv administered upto 5 days by Western blot analysis; type: functional, organism-based; conditions: time <= 5.0 day
4T1 [24] = test: Antitumor immunity against mouse 4T1 cells implanted in female BALB/c mouse model assessed as increase in proportion of tumor infiltrating CD8+ T cell at 10 mg/kg, iv administered upto 5 days by flow cytometry analysis; type: functional, organism-based; conditions: time <= 5.0 day
4T1 [25] = test: Antitumor activity against mouse 4T1 cells implanted in female BALB/c mouse model assessed as reduction in proportion of CD11b+ IL-6+ cells in tumor at 10 mg/kg, iv administered upto 5 days; type: functional, organism-based; conditions: time <= 5.0 day
[26] = Toxicity in female BALB/c mouse implanted with mouse 4T1 cells assessed as kidney damage at 10 mg/kg, iv; type: organism-based; conditions: in vivo
[27] = Toxicity in female BALB/c mouse implanted with mouse 4T1 cells assessed as spleen damage at 10 mg/kg, iv; type: organism-based; conditions: in vivo
[28] = Toxicity in female BALB/c mouse implanted with mouse 4T1 cells assessed as lung abnormality at 10 mg/kg, iv; type: organism-based; conditions: in vivo
[29] = Toxicity in female BALB/c mouse implanted with mouse 4T1 cells assessed as heart abnormality at 10 mg/kg, iv; type: organism-based; conditions: in vivo
[30] = Toxicity in female BALB/c mouse implanted with mouse 4T1 cells assessed as spleen abnormality at 10 mg/kg, iv; type: organism-based; conditions: in vivo
[31] = Toxicity in female BALB/c mouse implanted with mouse 4T1 cells assessed as kidney inflammation at 10 mg/kg, iv; type: organism-based; conditions: in vivo
[32] = Toxicity in female BALB/c mouse implanted with mouse 4T1 cells assessed as lung inflammation at 10 mg/kg, iv; type: organism-based; conditions: in vivo
[33] = Toxicity in female BALB/c mouse implanted with mouse 4T1 cells assessed as kidney lesion at 10 mg/kg, iv; type: organism-based; conditions: in vivo
[34] = Toxicity in female BALB/c mouse implanted with mouse 4T1 cells assessed as lung lesion at 10 mg/kg, iv; type: organism-based; conditions: in vivo
[35] = Toxicity in female BALB/c mouse implanted with mouse 4T1 cells assessed as heart lesion at 10 mg/kg, iv; type: organism-based; conditions: in vivo
Cisplatin-resistant 4T1 [36] = test: Antitumor activity against mouse Cisplatin-resistant 4T1 cells implanted in female BALB/c mouse assessed as reduction in tumor weight at 10 mg/kg, ip; type: functional, organism-based
Cisplatin-resistant 4T1 [37] = test: Antiproliferative activity against mouse Cisplatin-resistant 4T1 cells assessed as reduction in cell viability incubated for 48 hrs by MTT assay; type: functional, cell-based
Cisplatin-resistant 4T1 [38] = test: Antitumor activity against mouse Cisplatin-resistant 4T1 cells implanted in female BALB/c mouse assessed as increase in 4-HNE level at 10 mg/kg, ip; type: functional, organism-based

Structure (SMILES): CCCCCCC[C@@H](O)CC(=O)N[C@H](Cc1ccccc1)C(=O)N[C@H]1CSSC[C@@H](C(=O)O)NC1=O
- Activity (MDA-MB-468 [1]): inactive
- Activity (MDA-MB-468 [2]): inactive
- Activity (MDA-MB-468 [3]): Active
- Activity (MDA-MB-468 [4]): Active
- Activity (MDA-MB-468 [5]): Active
- Activity (MDA-MB-468 [6]): inactive
- Activity (MDA-MB-468 [7]): inactive
- Activity (MDA-MB-468 [8]): Active
- Activity (MDA-MB-468 [9]): Active
- Activity (MDA-MB-468 [10]): Time-dependent-effect
- Activity (MDA-MB-468 [11]): Active

Structure (SMILES): CCCCCCC[C@@H]1CC(=O)N[C@H](Cc2ccccc2)C(=O)N[C@@H](CSC)C(=O)N[C@@H](CSC)C(=O)O1
- Activity (MDA-MB-468 [1]): inactive
- Activity (MDA-MB-468 [2]): inactive
- Activity (MDA-MB-468 [3]): Active
- Activity (MDA-MB-468 [4]): Active
- Activity (MDA-MB-468 [5]): Active
- Activity (MDA-MB-468 [6]): inactive
- Activity (MDA-MB-468 [7]): inactive
- Activity (MDA-MB-468 [8]): Active
- Activity (MDA-MB-468 [9]): Active
- Activity (MDA-MB-468 [10]): Time-dependent-effect
- Activity (MDA-MB-468 [11]): Active

Structure (SMILES): CCCCCCC[C@@H]1CC(=O)N[C@H](Cc2ccccc2)C(=O)N[C@H]2CSSC[C@H](NC2=O)C(=O)O1
- inhibition (MDA-MB-468 [12]): Active
- Activity (MDA-MB-468 [13]): Active
- Activity (MDA-MB-468 [14]): Active
- Activity (MDA-MB-468 [15]): Active
- Activity (MDA-MB-468 [1]): inactive
- Activity (MDA-MB-468 [2]): Active
- Activity (MDA-MB-468 [16]): Active
- Activity (MDA-MB-468 [17]): Active
- Activity (MDA-MB-468 [18]): Time-dependent-effect
- Activity (MDA-MB-468 [5]): Active
- Activity (MDA-MB-468 [19]): Active
- Activity (MDA-MB-468 [6]): Active
- Activity (MDA-MB-468 [20]): Active
- Activity (MDA-MB-468 [7]): inactive
- Activity (MDA-MB-468 [8]): Active
- Activity (MDA-MB-468 [9]): Active
- TGI (4T1 [21]): Active
- Activity (4T1 [22]): Active
- Activity (4T1 [23]): Active
- Activity (4T1 [24]): Active
- Activity (4T1 [25]): Active
- Activity [26]: Non-toxic
- Activity [27]: Non-toxic
- Activity [28]: Non-toxic
- Activity [29]: Non-toxic
- Activity [30]: Non-toxic
- Activity [31]: Non-toxic
- Activity [32]: Non-toxic
- Activity [33]: Non-toxic
- Activity [34]: Non-toxic
- Activity [35]: Non-toxic
- Activity (Cisplatin-resistant 4T1 [36]): Active
- Activity (Cisplatin-resistant 4T1 [37]): Active
- Activity (Cisplatin-resistant 4T1 [38]): Active
